Measurements from patent publication US8431596B2 (Cancer Research Technology Limited, priority 2007, dated 2013).
Where “and” joins values, the source holds several entries; their conditions need not be identical. Identical values can stand only once.

Target: T1, AXL (human catalytic domain) (Homo sapiens, UniProt P30530)
T1 construct: purchased Upstate Ltd. 14-512
T1 sequence (P30530 473-894): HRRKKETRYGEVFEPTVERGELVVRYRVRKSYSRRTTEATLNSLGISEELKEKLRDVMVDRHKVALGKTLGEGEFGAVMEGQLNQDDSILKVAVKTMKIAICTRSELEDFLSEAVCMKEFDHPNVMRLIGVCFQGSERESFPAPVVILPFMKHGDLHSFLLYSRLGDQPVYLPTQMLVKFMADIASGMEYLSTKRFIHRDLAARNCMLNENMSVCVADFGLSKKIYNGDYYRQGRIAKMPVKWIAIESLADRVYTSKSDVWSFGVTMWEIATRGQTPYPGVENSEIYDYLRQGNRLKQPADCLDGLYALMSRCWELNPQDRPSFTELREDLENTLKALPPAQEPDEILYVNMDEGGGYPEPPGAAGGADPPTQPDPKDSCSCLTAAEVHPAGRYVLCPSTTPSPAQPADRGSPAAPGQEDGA
Assay: AXL (human catalytic domain) Enzyme Activity Assay (IMAP fluorescence polarisation)
Type: biochemical
Description: Biological Methods AXL (human catalytic domain) Enzyme Activity Assay Reagents
Kinase Assay Reaction Buffer: This consisted of 20 mM HEPES pH 7.0, 10 mM MgCl2, 1 mM DTT, […], 0.01% Triton X100 (v/v), and 0.01% BSA (w/v). All buffer components were purchased from Sigma-Aldrich at reagent grade or higher.
Kinase: Recombinant AXL isoform 1 (aa473-894 corresponding to Genbank Accession Number NP 068713) at 2 mg/mL (20.8 μM) was purchased from Upstate Ltd. (Product code 14-512, lot #28164U). The enzyme was stored at −80° C. and a working stock was prepared to a concentration of 30 nM by diluting 20.8 μM stock 1:693 in cold (4° C.) 1× Reaction Buffer. Final enzyme concentration in the assay was 15 nM.
Substrate: Fluorescein labelled CSK-tide 5FAM-[…]-NH2 was obtained from Molecular Devices (Product code R7270) and used at a working concentration of 200 nM by diluting the 100 μM stock 1:500 in 1× Reaction Buffer in a mix with the enzyme. A negative control (lacking enzyme) was prepared at the same concentrations. Final substrate concentration in the assay was 100 nM.
ATP: Supplied by Sigma (product code A-7699). A 100 mM ATP stock was prepared in […] and used at a working concentration of 375 μM by diluting the 100 mM stock 1:266.6 in Reaction Buffer. Final ATP concentration in the assay was 150 μM; this concentration represents the KM.ATP for this enzyme calculated in this assay.
IMAP Reagents: IMAP screening express kit was obtained from Molecular Devices (product code R8127). The binding reagent was gently re-suspended before diluting by 1:1000 in buffer (Binding Buffer is supplied as a 5× stock and so was diluted with water prior to use—this assay used 40% buffer A and 60% buffer B) and then vortexed before addition to wells. The binding reagent was used at a final dilution of 1:1333.
1 μL samples of test compounds in 10% DMSO/water were added to “test” wells by dry-spotting using a Matrix Platemate Plus. 5 μL Kinase/Substrate in Reaction Buffer were added to columns 1-22 of a Corning black low binding 384 well #6754 (90 μL volume) microplate to give 12 nM and 100 nM reaction concentration respectively. 5 μL substrate in Reaction Buffer was added to columns 23 and 24 to give 100 nM reaction concentration. 4 μL ATP in Reaction Buffer was added to all wells to give 150 μM reaction concentration. The reaction mixture was then incubated at room temperature for 60 minutes. The incubation period was followed by the addition of 20 μL IMAP Binding Reagent in Binding Buffer to all wells. The IMAP reaction detection was further incubated at room temperature overnight. The FP on a Tecan Ultra Plate reader was recorded as a single read at Ex485 Em535.
Percentage inhibition was calculated based on activity of the test sample minus the average values in the blank wells relative to the average values measured in control wells minus the average values in the blank wells.
IC50 values were calculated from 10 point dose sigmoid ‘dose-response’ curves using XIfit software (IDBS Inc, USA). Data were fitted to a 4 parameter logistic model/sigmoidal dose response defined by the following equation:
[formula] where: • A=fit minimum (locked to 0); • B=fit maximum (locked to 100); • C=fit midpoint (pre-fit to 1); and • D=slope at linear portion of curve, hillslope (pre-fit to 0.1).
The value for C represents the IC50 of the test compound.

[1] = first data set, recombinant AXL isoform 1 aa473-894, 150 μM ATP
[2] = further data set (WW-001 through WW-169, XX-001 through XX-469, YY-001 through YY-016, ZZ-001 through ZZ-003), 150 μM ATP

IC50 [1]	IC50 [2] [µM]	SMILES
< 1 µM	0.1 to 1	Nc1cccc(-c2cccc3nc(NC(=O)C4CC4)nn23)c1 [WW-054]
	0.1 to 1	CS(=O)(=O)n1cc(-c2cccc3nc(Nc4ccc(OCCN5CCCC5)cc4)nn23)cn1 [XX-276, [5-(1-Methanesulfonyl-1H-pyrazol-4-yl)-[1,2,4]triazolo[1,5-a]pyridin-2-yl]-[4-(2-pyrrolidin-1-yl-ethoxy)-phenyl]-amine]
	0.1 to 1	Cn1ccc2cc(-c3cccc4nc(Nc5ccc(OCCN6CCCC6)cc5)nn34)ccc21 [XX-439]
< 1 µM	1 to 10	COc1ccc(-c2cccc3nc(Nc4ccc(OCCO)cc4)nn23)cc1 [XX-011, 2-{4-[5-(4-methoxy-phenyl)-[1,2,4]triazolo[1,5-a]pyridin-2-ylamino]-phenoxy}-ethanol]
	0.1 to 1	O=C(CCN1CCCCC1)Nc1ccc(Nc2nc3cccc(-c4ccc5c(c4)OCCO5)n3n2)cc1 [XX-123]
	0.1 to 1	CS(=O)(=O)OCCn1cc(-c2cccc3nc(Nc4ccc(OCCN5CCCC5)cc4)nn23)cn1 [XX-091, Methanesulfonic acid 2-(4-{2-[4-(2-pyrrolidin-1-yl-ethoxy)-phenylamino]-[1,2,4]triazolo[1,5-a]pyridin-5-yl}-pyrazol-1-yl)-ethyl ester]
1 to 10 µM	1 to 10	COc1cccc(-c2cccc3nc(NC(=O)C4CC4)nn23)c1 [WW-024]
1 to 10 µM	1 to 10	CS(=O)(=O)c1ccc(-c2cccc3nc(NC(=O)C4CC4)nn23)cc1 [WW-014]
1 to 10 µM	1 to 10	CC(C)CNc1cccc2nc(NC(=O)C3CC3)nn12 [WW-079]
< 1 µM	≤ 0.1	c1cc(-c2ccc3occc3c2)n2nc(Nc3ccc(N4CCNCC4)cc3)nc2c1 [XX-058]
1 to 10 µM	1 to 10	O=C(Nc1nc2cccc(-c3cncc(F)c3)n2n1)C1CC1 [WW-052]
	0.1 to 1	COc1cc(Nc2nc3cccc(-c4ccc5c(c4)OCCO5)n3n2)ccc1OCCN(C)C [XX-112]
1 to 10 µM	1 to 10	O=C(Nc1nc2cccc(-c3cccc([N+](=O)[O-])c3)n2n1)C1CC1 [WW-091]
1 to 10 µM	1 to 10	COc1ccc(-c2cccc3nc(NC(=O)C4CCCC4)nn23)cc1 [WW-046]
1 to 10 µM	1 to 10	O=C(Nc1nc2cccc(-c3cccc(C(F)(F)F)c3)n2n1)C1CC1 [WW-033]
< 1 µM	0.1 to 1	O=C(Nc1nc2cccc(-c3ccc4cc[nH]c4c3)n2n1)C1CC1 [WW-106]
1 to 10 µM	1 to 10	O=C(Nc1nc2cccc(-c3ccc(Cl)cc3)n2n1)C1CC1 [WW-023]
	0.1 to 1	c1csc(SCCn2cc(-c3cccc4nc(Nc5ccc(OCCN6CCCC6)cc5)nn34)cn2)c1 [XX-426]
	1 to 10	c1cc(NCc2cncs2)cc(-c2cccc3nc(Nc4ccc(OCCN5CCCC5)cc4)nn23)c1 [XX-260]
	1 to 10	CCCOc1cccc(-c2cccc3nc(Nc4ccc(OCCN5CCCC5)cc4)nn23)c1 [XX-405]
	0.1 to 1	Cc1noc(C)c1-c1ccc(-c2cccc3nc(Nc4ccc(OCCN5CCCC5)cc4)nn23)cc1 [XX-190]
	0.1 to 1	c1cc(NCc2ncc[nH]2)cc(-c2cccc3nc(Nc4ccc(OCCN5CCCC5)cc4)nn23)c1 [XX-261]
	1 to 10	CCCCS(=O)(=O)n1cc(-c2cccc3nc(Nc4ccc(OCCN5CCCC5)cc4)nn23)cn1 [XX-296]

IC50 [1]	IC50 [2] [µM]	SMILES
	0.1 to 1	c1cc(-c2ccc(-c3ccoc3)cc2)n2nc(Nc3ccc(OCCN4CCCC4)cc3)nc2c1 [XX-185]
1 to 10 µM	1 to 10	CN(C)c1cccc(-c2cccc3nc(NC(=O)C4CC4)nn23)c1 [WW-071]
1 to 10 µM	1 to 10	COc1cc(-c2cccc3nc(NC(=O)C4CC4)nn23)ccc1F [WW-098]
	0.1 to 1	Cc1ccc(-c2cccc3nc(Nc4ccc(OCCCN5CCCCC5)cc4)nn23)cc1F [XX-421]
1 to 10 µM	1 to 10	COc1ccc(-c2cccc3nc(NC(=O)C4CC4)nn23)cn1 [WW-006, Cyclopropanecarboxylic acid [5-(6-methoxy-pyridin-3-yl)-[1,2,4]triazolo[1,5-a]pyridin-2-yl]-amide]
	1 to 10	Cn1nc(COc2cccc(-c3cccc4nc(Nc5ccc(OCCN6CCCC6)cc5)nn34)c2)cc1-c1ccccc1 [XX-459]
1 to 10 µM	1 to 10	Cc1ccc(-c2cccc3nc(NC(=O)C4CC4)nn23)s1 [WW-055]
	0.1 to 1	Cc1cc(Cn2cc(-c3cccc4nc(Nc5ccc(OCCN6CCCC6)cc5)nn34)cn2)no1 [XX-305]
	0.1 to 1	CN(C)c1ccc(-c2cccc3nc(Nc4ccc(OCCN5CCCC5)cc4)nn23)cc1 [XX-206]
	0.1 to 1	CCN(CC)CCOc1cc(Nc2nc3cccc(-c4cc5ccccc5o4)n3n2)ccn1 [XX-364]
1 to 10 µM	1 to 10	COc1cccc(Nc2cccc3nc(NC(=O)C4CC4)nn23)c1 [WW-160]
	0.1 to 1	Cn1nccc1-c1cccc(-c2cccc3nc(Nc4ccc(OCCN5CCCC5)cc4)nn23)c1 [XX-169]
	0.1 to 1	CCOc1cccc(-c2cccc3nc(Nc4ccc(OCCN5CCCC5)cc4)nn23)c1 [XX-337]
	≤ 0.1	CC[C@H](C)Cn1cc(-c2cccc3nc(Nc4ccc(OCCN5CCCC5)cc4)nn23)cn1 [XX-320]
1 to 10 µM	1 to 10	CC(C)CCn1cc(-c2cccc3nc(NC(=O)C4CC4)nn23)cn1 [WW-135]
	0.1 to 1	Cc1cc(-c2cccc3nc(Nc4ccc(OCCN5CCCC5)cc4)nn23)ccc1N(C)C [XX-094]
	0.1 to 1	CCN(CC)CCOc1cc(Nc2nc3cccc(-c4ccc5c(c4)OCO5)n3n2)ccn1 [XX-358]
	1 to 10	CC(=O)Nc1ccc(S(=O)(=O)Nc2ccc(-c3cccc4nc(Nc5ccc(OCCN6CCCC6)cc5)nn34)cc2)cc1 [XX-277]
	0.1 to 1	Clc1cccc(Cn2cc(-c3cccc4nc(Nc5ccc(OCCN6CCCC6)cc5)nn34)cn2)c1 [XX-352]
	1 to 10	COc1ncc(-c2cccc3nc(Nc4ccc(OCCN5CCCC5)cc4)nn23)cn1 [XX-197]
< 1 µM and 0.105 µM	0.1 to 1	COc1ccc(-c2nccc3nc(Nc4ccc(OCCN(C)C)cc4)nn23)cc1 [YY-003]
< 1 µM and 0.664 µM	0.1 to 1	Cc1cc(-c2cccc3nc(NC(=O)C4CC4)nn23)ccc1N(C)C [WW-103]
